{"source": "patent US11278514B2", "about": "“Composition compromising dunnione as effective ingredient for prevention or alleviation of hair loss” (NADIANBIO LTD., priority 2018, dated 2022)", "key": {"NQO1 knockout mice [1]": {"tested_on": "NQO1 knockout mice", "experimental": "The day, on which the NQO1 knockout mice were hair-removed according to Example 1, was set as day 0, and the animals were divided into the following experimental groups and used for experiments: normal group (Control, 4 animals) in which only PBS is intraperitoneally injected on day 9; cyclophosphamide group (CYP, 6 animals) in which cyclophosphamide (150 mg/kg) is intraperitoneally injected on day 9; combination-treated group (CYP+Dunnione, 6 animals) in which dunnione is orally administered on a daily basis starting from 3 days prior to treatment with cyclophosphamide; and dunnione alone-treated group (Dunnione, 4 animals) in which only dunnione (20 mg/kg) is administered (FIG. 1)."}, "p53": {"tested_on": "p53", "assay": "Acetylation of p53 in skin tissue (western blot), cyclophosphamide alopecia model", "type": "in vivo, mice", "details": "cyclophosphamide plus dunnione; day 18", "experimental": "(§1) In the cyclophosphamide-induced alopecia mouse model of Example 2, expression level of Sirt1 protein and acetylation reaction of the target proteins thereof, NF-κB p65 and p53, were identified on the skin tissue obtained on day 18 after hair removal.\n(§2) Specifically, 10 mg of the skin tissue obtained from the animal model prepared by the method in Example 2 was homogenized by addition of a lysis solution (RIPA lysis buffer). Then, centrifugation was performed at 14,000 rpm for 10 minutes. The protein concentration in the supernatant was quantified with a bovine serum albumin (BSA) standard solution. The skin tissue protein was used in an amount of 40 μg per test solution. First, the homogenized skin tissue was mixed with a sample solution (Bio-Rad, 161-0747) and inactivated at a temperature of 95° C. for 5 minutes. Thereafter, the protein was separated by a sodium dodecyl sulfate-polyacrylamide gel electrophoresis (SDS-PAGE) method, and then transferred to a nitrocellulose membrane. Treatment with anti-Sirt1 antibody (Abcam), anti-acetyl NF-κB p65 antibody and anti-acetyl p53 antibody (Cell Signaling Technologies), and anti-β-actin antibody (Santa Cruz Biotechnology) as primary antibodies were performed, and reaction was allowed to proceed. […]"}, "[2]": {"biological_target": "NAD(P)H: quinone oxidoreductase 1 (NQO1) (Homo sapiens, UniProt P15559)", "sequence (P15559 whole entry, species assumed)": "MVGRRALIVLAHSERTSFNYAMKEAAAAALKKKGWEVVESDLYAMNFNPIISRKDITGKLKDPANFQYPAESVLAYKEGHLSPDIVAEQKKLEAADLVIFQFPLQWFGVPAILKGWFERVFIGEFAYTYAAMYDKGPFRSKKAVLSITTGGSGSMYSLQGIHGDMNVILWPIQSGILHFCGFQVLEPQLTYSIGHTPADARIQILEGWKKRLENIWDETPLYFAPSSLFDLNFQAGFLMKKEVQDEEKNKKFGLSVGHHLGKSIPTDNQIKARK", "details": "reported to date (Pandit et al. 2015; Shen et al. 2017); cited from earlier work"}, "NQO1 knockout mice [3]": {"tested_on": "NQO1 knockout mice", "assay": "Histological changes in skin (H&E) in NQO1 knockout mice treated with 6×TAC", "type": "in vivo", "details": "day 18", "method": "The day, on which the NQO1 knockout mice were hair-removed according to Example 1, was set as day 0, and the mice in each of the experimental groups described in Example 5 were sacrificed on day 18. Subsequently, the mouse dorsal skin was dissected parallel or perpendicular to the vertebral line, and removed. The removed skin was fixed with a Bouin's solution for 12 hours, subjected to dehydration, and embedded in paraffin. Then, the resulting product was prepared into 5-μm sections. The prepared sections were subjected to hematoxylin and eosin (H&E) staining, and histological changes in the skin in each experimental group were observed."}, "Sirt1 protein": {"tested_on": "Sirt1 protein", "assay": "Expression level of Sirt1 protein in skin tissue (western blot), cyclophosphamide alopecia model", "type": "in vivo, mice", "details": "cyclophosphamide plus dunnione; day 18", "experimental": "as §1, §2"}, "intracellular NAD^+": {"tested_on": "intracellular NAD^+", "details": "reported to date (Pandit et al. 2015; Shen et al. 2017); cited from earlier work"}, "[4]": {"tested_on": "C57BL/6 mice having alopecia caused by docetaxel, adriamycin, and cyclophosphamide", "assay": "Histological changes in skin (H&E) in animal model having alopecia caused by 6×TAC", "type": "in vivo", "details": "day 18", "method": "The day, on which the mice were hair-removed in Example 1, was set as day 0, and the mice in each of the experimental groups described in Example 4 were sacrificed on day 18. Subsequently, the mouse dorsal skin was dissected parallel or perpendicular to the vertebral line, and removed. The removed skin was fixed with a Bouin's solution for 12 hours, subjected to dehydration, and embedded in paraffin. Then, the resulting product was prepared into 5-μm sections. The prepared sections were subjected to hematoxylin and eosin (H&E) staining, and histological changes in the skin in each experimental group were observed."}, "Sirt1": {"tested_on": "Sirt1", "assay": "Sirt1 activity in skin tissue (fluorescent Sirt1 detection kit), cyclophosphamide alopecia model", "type": "in vivo, mice", "details": "cyclophosphamide plus dunnione combination-treated group; day 18", "experimental": "In addition, the skin tissue obtained from the animal model prepared by the method in Example 2 was homogenized. The homogenized skin tissue was tested with the fluorescent Sirt1 detection kit (BML-AK555-0001) of Enzo Life Sciences International, Inc. according to the instruction manual, and then Sirt1 activity was analyzed. 40 μg of the homogenized skin tissue was mixed with a reaction solution (Fluor de Lys-Sirt1, NAD+, buffer solution (25 mM Tris-HCl (pH8.0), 137 mM NaCl, 2.7 mM […], 1 mM MgCl2, and 1 mg/mL BSA)), and reaction was allowed to proceed at a temperature of 37° C. for 1 hour. Then, additional reaction was allowed to proceed for 5 minutes under a condition in which a developer is added. In order to check the final Sirt1 activity, readings were measured for the reaction solution using the CytoFluor series 4000 fluorometer (PerSeptive Biosystems, Inc., USA) with the excitation wavelength set to 360 nm and the emission to 460 nm."}, "[5]": {"details": "6×TAC+Dunnione combination-treated group"}}, "note": "“Also recorded” adds a separate entry of the source. Where two headings read alike, the source gives them in different places."}
{"compound": "CC1OC2=C(C(=O)C(=O)c3ccccc32)C1(C)C", "note": "(stereo not drawn) [dunnione, 2,3-dihydro-2,3,3-trimethyl-naphtho[1,2-b]furan-4,5-dione]", "values": [{"measurement": "hair growth, visual observation of skin", "setting": "NQO1 knockout mice [1]; CYP+Dun combination-treated group, until day 18", "value": "hair hardly grew until day 18 after hair removal; also recorded: progression of hair loss to a level similar to the cyclophosphamide alone-treated group"}, {"measurement": "start of hair growth, visual observation of skin", "setting": "NQO1 knockout mice [1]; dunnione alone (20 mg/kg)", "value": "hair began to grow starting from day 12 after hair removal"}, {"measurement": "hair growth, visual observation of skin", "setting": "NQO1 knockout mice [1]; dunnione alone (20 mg/kg), day 18", "value": "hair grew overall on day 18 so that the skin is full of hair and looks black"}, {"measurement": "acetylation of p53 in skin tissue", "setting": "p53", "value": "suppresses"}, {"measurement": "activity of the enzyme NQO1", "setting": "[2]", "value": "increases"}, {"measurement": "development of hair follicles and inner root sheaths (histology)", "setting": "NQO1 knockout mice [3]; [5]", "value": "the hair follicles have poorly developed or the inner root sheaths have insufficiently developed; also recorded: falling-off of hair follicles and inner root sheaths in the skin tissue progresses"}, {"measurement": "development of hair follicles and inner root sheaths (histology)", "setting": "NQO1 knockout mice [3]; dunnione alone", "value": "the hair follicles and inner root sheaths have well developed overall"}, {"measurement": "expression level of Sirt1 protein in skin tissue", "setting": "Sirt1 protein", "value": "increases; also recorded: normalizes"}, {"measurement": "intracellular NAD^+", "setting": "intracellular NAD^+", "value": "increase"}, {"measurement": "development of hair follicles and inner root sheaths (histology)", "setting": "[4]; [5]", "value": "the hair follicles and the inner root sheaths have well developed overall; also recorded: suppressed falling-off of hair follicles and inner root sheaths"}, {"measurement": "number of growing hairs (histology)", "setting": "[4]; 6×TAC+Dunnione compared with 6×TAC alone-treated group", "value": "increased number of hairs"}, {"measurement": "Sirt1 activity in skin tissue", "setting": "Sirt1", "value": "maintained at a level similar to the normal group"}]}
